Laboratory results as given in PMC12800249 (Scientific Reports, 2025).

Assays:
MOR = conditions: literature statement; cited from earlier work
[1] = target: delta opioid receptor (DOR) (Rattus norvegicus, UniProt P33533); test: Intracellular cAMP assay; assay type: cell-based; conditions: FRSK cells; 10 μM forskolin, 1–1000 nM peptide, 30 min; cAMP-Glo
Chain of delta opioid receptor (DOR) (P33533 whole entry): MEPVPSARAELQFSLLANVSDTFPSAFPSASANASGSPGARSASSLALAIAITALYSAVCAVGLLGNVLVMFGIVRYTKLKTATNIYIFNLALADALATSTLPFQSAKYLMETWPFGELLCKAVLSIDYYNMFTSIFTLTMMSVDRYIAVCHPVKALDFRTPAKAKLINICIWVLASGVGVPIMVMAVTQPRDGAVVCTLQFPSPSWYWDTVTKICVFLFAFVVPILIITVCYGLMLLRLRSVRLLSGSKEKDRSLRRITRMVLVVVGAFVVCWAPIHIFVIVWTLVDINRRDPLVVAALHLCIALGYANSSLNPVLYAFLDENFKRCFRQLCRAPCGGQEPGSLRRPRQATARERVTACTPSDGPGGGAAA

β-endorphin
receptor preference (MOR) (MOR): primary ligand for MOR
effect on forskolin-induced intracellular cAMP [1]: attenuated this forskolin-induced increase in cAMP concentration in a dose-dependent manner
